Measured values from article PMC9795544, “Identifying Novel Inhibitors for Hepatic Organic Anion Transporting Polypeptides by Machine Learning-Based Virtual Screening” (Journal of Chemical Information and Modeling, 2022).
Like-named read-outs stand apart in the source and are kept apart here.

Assays:
Type in all cases: cell-based
[1] = molecular target: T1, OATP1B1 (Homo sapiens, UniProt Q9Y6L6); assay: Pyranine transport inhibition in A431 cells overexpressing OATP1B1
T1 construct: expressed in transfected cells; host or cells: A431 cells
T1 sequence (Q9Y6L6 1-691): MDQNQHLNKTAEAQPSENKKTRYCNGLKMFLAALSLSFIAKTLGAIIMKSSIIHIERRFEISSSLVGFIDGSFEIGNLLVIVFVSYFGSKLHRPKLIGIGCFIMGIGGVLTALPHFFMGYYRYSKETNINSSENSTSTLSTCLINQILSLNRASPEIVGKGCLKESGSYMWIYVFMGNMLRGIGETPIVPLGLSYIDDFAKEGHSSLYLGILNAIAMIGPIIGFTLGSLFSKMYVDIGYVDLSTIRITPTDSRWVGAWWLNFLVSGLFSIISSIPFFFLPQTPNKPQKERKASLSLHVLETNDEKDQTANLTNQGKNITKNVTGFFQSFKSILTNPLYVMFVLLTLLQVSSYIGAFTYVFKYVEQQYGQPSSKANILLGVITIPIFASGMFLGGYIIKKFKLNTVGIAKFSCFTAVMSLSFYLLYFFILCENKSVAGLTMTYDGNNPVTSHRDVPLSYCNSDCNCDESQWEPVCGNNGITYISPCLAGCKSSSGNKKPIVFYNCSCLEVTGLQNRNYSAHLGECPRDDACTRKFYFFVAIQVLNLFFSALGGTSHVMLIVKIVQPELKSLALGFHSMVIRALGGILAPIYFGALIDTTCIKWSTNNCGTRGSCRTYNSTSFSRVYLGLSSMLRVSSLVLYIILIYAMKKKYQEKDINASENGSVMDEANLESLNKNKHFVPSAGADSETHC
Method: (§1) A431 cells overexpressing OATP1B1, OATP1B3, or OATP2B1 or their mock transfected controls were generated previously[30] and maintained in Dulbecco’s modified Eagle medium (DMEM, Gibco, Thermofisher Scientific, Waltham, MA, US) supplemented with 10% fetal bovine serum, 2 mM L-glutamine, 100 units/mL penicillin, and 100 μg/mL streptomycin. Expression and function of OATPs in the cell lines were checked regularly.
(§2) Interaction with OATP1B1, OATP1B3, or OATP2B1 was tested in an indirect transport assay using pyranine (8-hydroxypyrene-1,3,6-trisulfonic acid trisodium salt, H1529, Sigma, Merck, Budapest, Hungary) as the test substrate[31],[32] A431 cells overexpressing OATP1B1, OATP1B3, or OATP2B1 or their mock transfected controls were seeded on 96-well plates in a density of 8 × 10^4 cells per well in 200 μL of cell culture medium 1 day prior to the transport measurements. […] The transport reaction was started by the addition of 50 μL of uptake buffer containing pyranine in a final concentration of 10 μM (OATP1B1) or 20 μM (OATP1B3 and OATP2B1), and the cells were further incubated at 37 °C for 15 min (OATP1B1 and OATP2B1) or 30 min (OATP1B3). The reaction was stopped by removing the supernatant. After repeated washing with ice-cold PBS, fluorescence was determined in an Enspire plate reader (PerkinElmer, Waltham, MA) with excitation/emission wavelengths of 460/510 nm. OATP-dependent transport was calculated by extracting fluorescence measured in mock transfected cells and normalized to the fluorescence signal obtained in the absence of the tested compounds (100%). Experiments were repeated in at least three biological replicates.

[2] = molecular target: T2, OATP2B1 (Homo sapiens, UniProt O94956); assay: Pyranine transport inhibition in A431 cells overexpressing OATP2B1
T2 construct: expressed in transfected cells; host or cells: A431 cells
T2 sequence (O94956 1-709): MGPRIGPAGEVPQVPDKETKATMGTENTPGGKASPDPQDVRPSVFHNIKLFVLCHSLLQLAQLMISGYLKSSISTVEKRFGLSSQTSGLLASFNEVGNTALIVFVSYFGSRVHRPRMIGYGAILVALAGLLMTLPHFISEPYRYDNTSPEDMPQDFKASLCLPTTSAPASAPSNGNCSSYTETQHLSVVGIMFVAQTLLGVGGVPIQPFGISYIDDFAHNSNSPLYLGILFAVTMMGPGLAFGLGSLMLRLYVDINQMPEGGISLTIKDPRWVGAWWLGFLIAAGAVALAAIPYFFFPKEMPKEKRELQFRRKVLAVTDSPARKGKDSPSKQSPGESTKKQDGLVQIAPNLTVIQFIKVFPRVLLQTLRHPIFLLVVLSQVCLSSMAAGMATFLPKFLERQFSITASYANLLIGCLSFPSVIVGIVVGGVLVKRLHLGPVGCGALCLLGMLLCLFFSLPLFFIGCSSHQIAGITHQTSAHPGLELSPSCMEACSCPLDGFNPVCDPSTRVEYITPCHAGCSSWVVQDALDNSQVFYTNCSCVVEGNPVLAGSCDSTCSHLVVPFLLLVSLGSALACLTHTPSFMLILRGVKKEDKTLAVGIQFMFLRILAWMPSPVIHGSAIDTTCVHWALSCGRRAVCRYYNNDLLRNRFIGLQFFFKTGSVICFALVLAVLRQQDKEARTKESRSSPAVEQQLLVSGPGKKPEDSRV
Method: as §1, §2

[3] = molecular target: T3, OATP1B3 (Homo sapiens, UniProt Q9NPD5); assay: Pyranine transport inhibition in A431 cells overexpressing OATP1B3; conditions: for IC50: read-out: IC50 (μM) OATP1B3
T3 construct: expressed in transfected cells; host or cells: A431 cells
T3 sequence (Q9NPD5 1-702): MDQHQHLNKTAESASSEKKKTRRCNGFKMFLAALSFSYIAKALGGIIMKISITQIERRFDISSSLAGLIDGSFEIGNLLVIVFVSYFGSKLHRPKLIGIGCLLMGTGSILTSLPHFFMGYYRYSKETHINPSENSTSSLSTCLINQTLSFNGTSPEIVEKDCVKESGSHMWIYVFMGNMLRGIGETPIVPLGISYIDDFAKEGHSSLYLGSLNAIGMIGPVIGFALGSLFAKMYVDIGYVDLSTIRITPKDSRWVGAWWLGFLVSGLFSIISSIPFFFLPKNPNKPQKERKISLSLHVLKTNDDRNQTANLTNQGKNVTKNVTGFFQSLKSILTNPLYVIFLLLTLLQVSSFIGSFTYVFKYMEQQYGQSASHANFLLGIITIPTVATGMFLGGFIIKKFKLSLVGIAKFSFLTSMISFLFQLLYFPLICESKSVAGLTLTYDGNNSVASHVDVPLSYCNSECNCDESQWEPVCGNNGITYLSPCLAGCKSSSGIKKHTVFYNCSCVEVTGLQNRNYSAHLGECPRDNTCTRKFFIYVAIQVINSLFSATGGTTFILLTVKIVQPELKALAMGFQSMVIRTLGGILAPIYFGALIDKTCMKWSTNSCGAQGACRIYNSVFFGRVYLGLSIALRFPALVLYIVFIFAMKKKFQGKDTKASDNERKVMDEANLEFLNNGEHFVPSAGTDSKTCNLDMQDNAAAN
Method: as §1, §2

[4] = initial three-point screen (1, 10, 100 μM), category by concentration needed for 50% inhibition, pyranine 10 μM, 15 min, pH 5.5, read-out: IC50 (μM) OATP1B1
[5] = initial three-point screen (1, 10, 100 μM), category by concentration needed for 50% inhibition, pyranine 20 μM, 15 min, pH 5.5, read-out: IC50 (μM) OATP2B1
[6] = initial three-point screen (1, 10, 100 μM), category by concentration needed for 50% inhibition, pyranine 20 μM, 30 min, pH 5.5
[7] = IC50 (μM) OATP2B1, initial three-point screen (1, 10, 100 μM), category by concentration needed for 50% inhibition, pyranine 20 μM, 15 min, pH 5.5
[8] = full dose-response curve, eight concentrations, Hill1 fit, read-out: IC50 (μM) OATP2B1
[9] = full dose-response curve, eight concentrations, Hill1 fit
[10] = full dose-response curve, eight concentrations, Hill1 fit, read-out: IC50 (μM) OATP1B1

SMILES | IC50 [1, 4] [µM] | IC50 [2, 5] [µM] | IC50 [3, 6] [µM] | further results
CSCCC(NC(=O)c1ccco1)C(=O)OCc1cc(=O)oc2cc(O)ccc12 (stereo not drawn) [B7, CSCCC(NC(=O)c1occc1)C(=O)OCC2=CC(=O)Oc3cc(O)ccc23] | 1 to 10 | 1 to 10 | > 10 | –
CCc1ccccc1NC(=O)CN1CCN(C(=O)c2cc(-c3ccncc3)nc3ccccc23)CC1 [C3, CCc1ccccc1NC(=O)CN2CCN(CC2)C(=O)c3cc(nc4ccccc34)c5ccncc5] | 1 to 10 | 1 to 10 | > 10 | –
Cc1cccn2cc(COC(=O)c3ccc4c(c3)C(=O)N(Cc3ccco3)C4=O)nc12 [C4, Cc1cccn2cc(COC(=O)c3ccc4C(=O)N(Cc5occc5)C(=O)c4c3)nc12] | – | – | – | IC50 [1]: > 10 µM; IC50 [2, 7]: > 10 µM; IC50 (μM) OATP1B3 [3, 6]: no effect
Cc1cccc2nc(CSc3nc4sc5c(c4c(=O)n3Cc3ccccc3)CCCC5)cn12 [C5, Cc1cccc2nc(CSC3=Nc4sc5CCCCc5c4C(=O)N3Cc6ccccc6)cn12] | > 10 | > 10 | – | IC50 (μM) OATP1B3 [3, 6]: no effect
CC(C)c1cc(C(=O)N2CCC(n3c(=O)[nH]c4ccccc43)CC2)c2cnn(C(C)C)c2n1 [C6, CC(C)c1cc(C(=O)N2CCC(CC2)N3C(=O)Nc4ccccc34)c5cnn(C(C)C)c5n1] | 1 to 10 | 1 to 10 | 1 to 10 | –
O=C(O)c1cc(/C=C/c2c(-c3ccccc3)nc3ccccn23)nc2ccccc12 [C7, OC(=O)c1cc(\C=C\c2c(nc3ccccn23)c4ccccc4)nc5ccccc15] | – | < 1 | 1 to 10 | IC50 [1]: > 10 µM; IC50 [2, 8]: 0.04 µM; IC50 [3, 9]: 5.4 µM; fold lower affinity on OATP1B3 than on OATP2B1 ([3]; ratio of IC50 OATP1B3 / OATP2B1): 135 fold
O=C1NC2(CCCc3sccc32)C(=O)N1CC(=O)N1c2ccccc2OCC1c1ccccc1 (stereo not drawn) [D2, O=C(CN1C(=O)NC2(CCCc3sccc23)C1=O)N4C(COc5ccccc45)c6ccccc6] | > 10 | > 10 | > 10 | –
O=C(CCN1C(=O)NC2(CCCC2)C1=O)Nc1nc(-c2ccc3c(c2)CCC3)cs1 [D3, O=C(CCN1C(=O)NC2(CCCC2)C1=O)Nc3nc(cs3)c4ccc5CCCc5c4] | – | > 10 | – | IC50 (μM) OATP1B1 ([1]; initial three-point screen (1, 10, 100 μM), category by concentration needed for 50% inhibition, pyranine 10 μM, 15 min, pH 5.5): no effect; IC50 (μM) OATP1B3 [3, 6]: no effect
O=C(COc1ccc([N+](=O)[O-])cc1)Nc1c(C(=O)N2CCOCC2)oc2ccccc12 [D7, [O-][N+](=O)c1ccc(OCC(=O)Nc2c(oc3ccccc23)C(=O)N4CCOCC4)cc1] | – | – | – | IC50 [1]: > 10 µM; IC50 [2, 7]: > 10 µM; IC50 (μM) OATP1B3 [3, 6]: no effect
COc1ccc(C2(c3ccc(OC)cc3)NC(=O)N(CC(=O)c3ccc4c(c3)OCO4)C2=O)cc1 [E2, COc1ccc(cc1)C2(NC(=O)N(CC(=O)c3ccc4OCOc4c3)C2=O)c5ccc(OC)cc5] | > 10 | 1 to 10 | 1 to 10 | –
Cn1c(=O)[nH]c(=O)c2c1nc(N/N=C1/C(=O)Nc3ccccc31)n2CCCc1ccccc1 [E3, CN1C(=O)NC(=O)c2c1nc(N\N=C/3\C(=O)Nc4ccccc34)n2CCCc5ccccc5] | 1 to 10 | – | 1 to 10 | IC50 [1, 10]: 2.69 µM; IC50 [2, 8]: 1.32 µM; IC50 [3, 9]: 1.53 µM
O=C(NCc1cn(Cc2ccccc2)nc1-c1ccccc1)c1cc(F)cc(F)c1 [E5, Fc1cc(F)cc(c1)C(=O)NCc2cn(Cc3ccccc3)nc2c4ccccc4] | 1 to 10 | – | – | IC50 [1, 10]: 7.61 µM; IC50 [2, 8]: 1.48 µM; IC50 [3, 9]: 7.5 µM
CCn1cnc2c1c(=O)n(CC(=O)NC1CCCC(C)C1C)c(=O)n2Cc1ccccc1 (stereo not drawn) [E6, CCn1cnc2N(Cc3ccccc3)C(=O)N(CC(=O)NC4CCCC(C)C4C)C(=O)c12] | > 10 | 1 to 10 | > 10 | –
O=C(Nc1ccccc1)N1CCCC(C(=O)N2CCN(Cc3nc4ccccc4s3)CC2)C1 (stereo not drawn) [F3, O=C(Nc1ccccc1)N2CCCC(C2)C(=O)N3CCN(Cc4nc5ccccc5s4)CC3] | > 10 | > 10 | > 10 | –
Cc1ccc(OCc2nnc(SCC(=O)N3CCN(C(=O)Nc4ccccc4)CC3)o2)cc1 [F4, Cc1ccc(OCc2oc(SCC(=O)N3CCN(CC3)C(=O)Nc4ccccc4)nn2)cc1] | – | – | – | IC50 [1]: > 10 µM; IC50 [2, 7]: > 10 µM; IC50 (μM) OATP1B3 [3, 6]: Activated
Cc1cc(NS(=O)(=O)c2ccc(NC(=O)Cc3coc4c(C)c(C)ccc34)cc2)nc(C)n1 [F5, Cc1cc(NS(=O)(=O)c2ccc(NC(=O)Cc3coc4c(C)c(C)ccc34)cc2)nc(C)n1] | 1 to 10 | 1 to 10 | 1 to 10 | –
O=C(NCc1ccc(N2CCOCC2)nc1)c1ccccc1CSc1nc2ccccc2[nH]1 [F6, O=C(NCc1ccc(nc1)N2CCOCC2)c3ccccc3CSc4nc5ccccc5[nH]4] | > 10 | 1 to 10 | > 10 | –
O=C(Nc1ccccc1)C1CCN(C(=O)c2cc(-c3ccccc3)nc3ccccc23)CC1 [G2, O=C(Nc1ccccc1)C2CCN(CC2)C(=O)c3cc(nc4ccccc34)c5ccccc5] | 1 to 10 | 1 to 10 | 1 to 10 | –
